# Results published in paper PMC6934184, “Selective DNA-PKcs inhibition extends the therapeutic index of localized radiotherapy and chemotherapy” (The Journal of Clinical Investigation, 2019).
# Molecular target: T1, NEK1 (Homo sapiens, UniProt Q96PY6)
# T1 construct: purchased Thermo Fisher Scientific (Life Technologies) SelectScreen
# Experiment: SelectScreen Z'LYTE
# Format: biochemical
# Procedure, shortened: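 NU5455 was profiled across the SelectScreen Broad panel of kinase activity and binding assays. Z'LYTE reactions such as CSF1R ran at apparent Km ATP, while the Adapta CAMK1 assay used ATP listed as 10. Values are given as percent.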
# T1 sequence (Q96PY6 whole entry): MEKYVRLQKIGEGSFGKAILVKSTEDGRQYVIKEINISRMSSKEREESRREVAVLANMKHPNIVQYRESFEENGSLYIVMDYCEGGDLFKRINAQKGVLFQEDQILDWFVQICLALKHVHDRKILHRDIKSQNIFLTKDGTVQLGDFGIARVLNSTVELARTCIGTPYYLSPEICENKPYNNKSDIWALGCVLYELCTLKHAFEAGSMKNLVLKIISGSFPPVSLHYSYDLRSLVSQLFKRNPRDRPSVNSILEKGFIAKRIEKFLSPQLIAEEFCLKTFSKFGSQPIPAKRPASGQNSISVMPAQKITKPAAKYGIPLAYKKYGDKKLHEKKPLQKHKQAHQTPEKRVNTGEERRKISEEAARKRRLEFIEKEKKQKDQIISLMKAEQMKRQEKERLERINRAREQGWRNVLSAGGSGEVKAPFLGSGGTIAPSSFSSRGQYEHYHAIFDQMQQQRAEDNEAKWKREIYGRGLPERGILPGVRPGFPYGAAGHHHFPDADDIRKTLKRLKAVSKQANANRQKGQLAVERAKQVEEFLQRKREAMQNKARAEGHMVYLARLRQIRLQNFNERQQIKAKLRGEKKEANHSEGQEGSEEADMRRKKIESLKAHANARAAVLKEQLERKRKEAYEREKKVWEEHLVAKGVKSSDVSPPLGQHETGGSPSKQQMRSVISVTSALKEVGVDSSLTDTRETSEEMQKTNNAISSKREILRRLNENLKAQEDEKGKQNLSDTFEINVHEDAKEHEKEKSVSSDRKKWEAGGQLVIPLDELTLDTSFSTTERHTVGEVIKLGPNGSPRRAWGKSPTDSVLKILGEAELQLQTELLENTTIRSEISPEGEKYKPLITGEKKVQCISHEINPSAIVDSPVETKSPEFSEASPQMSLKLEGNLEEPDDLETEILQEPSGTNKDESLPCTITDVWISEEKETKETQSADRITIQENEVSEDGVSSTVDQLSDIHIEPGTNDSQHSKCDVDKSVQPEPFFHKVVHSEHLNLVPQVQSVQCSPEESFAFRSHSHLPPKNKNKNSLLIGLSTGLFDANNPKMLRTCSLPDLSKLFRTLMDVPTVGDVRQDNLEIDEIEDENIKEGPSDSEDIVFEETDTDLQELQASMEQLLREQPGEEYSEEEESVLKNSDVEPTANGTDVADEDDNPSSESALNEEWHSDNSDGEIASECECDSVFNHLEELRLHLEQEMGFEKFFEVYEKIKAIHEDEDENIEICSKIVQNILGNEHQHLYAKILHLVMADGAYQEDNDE
structure (smiles),measurement,value
CN(C(=O)CN1CCOCC1)c1ccc2sc3c(-c4cccc5c(=O)cc(N6CC7CCC(C6)O7)oc45)cccc3c2c1 [NU5455],inhibition at 1 µM,12.9%
